In brackets after ≈: the same amount, converted by molar mass.
How the values were obtained:
Oral LD50 = format: in vivo, Sprague Dawley rats; conditions: taken orally, tragacant gum as vehicle
Description: Moreover, the anatomopathological elements and the clinical events were characterized during the experiments.

Microsporum gypseum = experiment: In vitro MIC (serial dilution); format: cell-based; conditions: Nannizzia gypsea
Procedure: (§1) The antimicrobial sensitivity was first evaluated "in vitro" using the serial dilution method for bacteria and fungi. Other growth methods in agar cultures were included for other species. The liquid and solid mediums used were Mueller-Hinton, Tryptona Soya, Sabouraud Dextrosa, Sabouraud Maltose and other mediums in accordance with the cultural demands of the micro-organisms valued.
(§2) The temperature and incubation period was adjusted to conditions and characteristics of the micro-organisms used.
(§3) The Minimal Inhibitory Concentration (MIC) was calculated in terms of MIC50 and MIC90 in µg/ml.

Pseudomonas aerguinosa = experiment: In vitro MIC (serial dilution); format: cell-based
Procedure: as §1, §2, §3

Candida zeyfanoide = experiment: In vitro MIC (serial dilution); format: cell-based
Procedure: as §1, §2, §3

Candida parasilosis = experiment: In vitro MIC (serial dilution); format: cell-based
Procedure: as §1, §2, §3

Escherichia coli = experiment: In vitro MIC (serial dilution); format: cell-based
Procedure: as §1, §2, §3

Salmonella choleraesuis = experiment: In vitro MIC (serial dilution); format: cell-based; conditions: Salmonella enterica
Procedure: as §1, §2, §3

Candida krusei = experiment: In vitro MIC (serial dilution); format: cell-based; conditions: Pichia kudriavzevii
Procedure: as §1, §2, §3

Pasteurella haemolytica = experiment: In vitro MIC (serial dilution); format: cell-based; conditions: Mannheimia haemolytica
Procedure: as §1, §2, §3

Serratia marcescens = experiment: In vitro MIC (serial dilution); format: cell-based
Procedure: as §1, §2, §3

Fusarium sp. = experiment: In vitro MIC (serial dilution); format: cell-based; conditions: read-out: Minimal Inhibitory Concentration (MIC)
Procedure: as §1, §2, §3

Staphylococcus albus = experiment: In vitro MIC (serial dilution); format: cell-based
Procedure: as §1, §2, §3

Candida guilliermondi = experiment: In vitro MIC (serial dilution); format: cell-based
Procedure: as §1, §2, §3

Microsporum canis = experiment: In vitro MIC (serial dilution); format: cell-based
Procedure: as §1, §2, §3

Sarcina lutea = experiment: In vitro MIC (serial dilution); format: cell-based; conditions: Micrococcus luteus
Procedure: as §1, §2, §3

Leptospira canicola = experiment: In vitro MIC (serial dilution); format: cell-based; conditions: Leptospira interrogans
Procedure: as §1, §2, §3

Salmonella typhimurium = experiment: In vitro MIC (serial dilution); format: cell-based; conditions: Salmonella enterica
Procedure: as §1, §2, §3

Proteus rettgeri = experiment: In vitro MIC (serial dilution); format: cell-based; conditions: Providencia rettgeri
Procedure: as §1, §2, §3

Candida albicans = experiment: In vitro MIC (serial dilution); format: cell-based
Procedure: as §1, §2, §3

Salmonella enteritidis = experiment: In vitro MIC (serial dilution); format: cell-based; conditions: Salmonella enterica
Procedure: as §1, §2, §3

Proteus vulgaris = experiment: In vitro MIC (serial dilution); format: cell-based
Procedure: as §1, §2, §3

Leptospira pomona = experiment: In vitro MIC (serial dilution); format: cell-based
Procedure: as §1, §2, §3

Proteus morganii = experiment: In vitro MIC (serial dilution); format: cell-based; conditions: Morganella morganii
Procedure: as §1, §2, §3

[1] = test system: Trichophyton mentagrophytes; experiment: In vitro MIC (serial dilution); format: cell-based
Procedure: as §1, §2, §3

Corynebacterium pyogenes = experiment: In vitro MIC (serial dilution); format: cell-based; conditions: Rhodococcus (subgen. Prescottella) equi
Procedure: as §1, §2, §3

[2] = test system: Klebsiella spp. (including K. pneumoniae); experiment: In vitro MIC (serial dilution); format: cell-based
Procedure: as §1, §2, §3

Streptococcus agalactiae = experiment: In vitro MIC (serial dilution); format: cell-based
Procedure: as §1, §2, §3

Epidermophyton floccasum = experiment: In vitro MIC (serial dilution); format: cell-based; conditions: only one value given
Procedure: as §1, §2, §3

Staphylococcus aureus = experiment: In vitro MIC (serial dilution); format: cell-based
Procedure: as §1, §2, §3

Candida tropicalis = experiment: In vitro MIC (serial dilution); format: cell-based
Procedure: as §1, §2, §3

[3] = test system: Vibrio cholerae ser. Inabu; experiment: In vitro MIC (serial dilution); format: cell-based
Procedure: as §1, §2, §3

Pasteurella multocida = experiment: In vitro MIC (serial dilution); format: cell-based
Procedure: as §1, §2, §3

Enterobacter spp. = experiment: In vitro MIC (serial dilution); format: cell-based
Procedure: as §1, §2, §3

Streptococcus pyogenes = experiment: In vitro MIC (serial dilution); format: cell-based
Procedure: as §1, §2, §3

Aspergillus sp. = experiment: In vitro MIC (serial dilution); format: cell-based
Procedure: as §1, §2, §3

Bacillus alvei = experiment: In vitro MIC (serial dilution); format: cell-based; conditions: Paenibacillus alvei
Procedure: as §1, §2, §3

Pseudomonas maltophila = experiment: In vitro MIC (serial dilution); format: cell-based
Procedure: as §1, §2, §3

Moracella bovis = experiment: In vitro MIC (serial dilution); format: cell-based
Procedure: as §1, §2, §3

Salmonella thyphi = experiment: In vitro MIC (serial dilution); format: cell-based
Procedure: as §1, §2, §3

Salmonella dublin = experiment: In vitro MIC (serial dilution); format: cell-based; conditions: Salmonella enterica
Procedure: as §1, §2, §3

Neisseria meningitidis = experiment: In vitro MIC (serial dilution); format: cell-based
Procedure: as §1, §2, §3

Salmonella oxford = experiment: In vitro MIC (serial dilution); format: cell-based
Procedure: as §1, §2, §3

O=[N+]([O-])C(Br)=Cc1ccc(Br)o1 [Product G-1, 2-bromo-5-(2-bromo-2-nitro-vinyl)-furan]
Lethal Average Dose (LD50) (Oral LD50; female Sprague Dawley rats): 1515.5 mg/kg of body mass | Lethal Average Dose (LD50) (Oral LD50; male Sprague Dawley rats): 1857 mg/kg of body mass | MIC50 (Microsporum gypseum): 12.5 µg/mL (≈ 42.1 µM) | MIC90 (Microsporum gypseum): 20.8 µg/mL (≈ 70 µM) | MIC50 (Pseudomonas aerguinosa): 7.84 µg/mL (≈ 26.4 µM) | MIC90 (Pseudomonas aerguinosa): 15 µg/mL (≈ 50.4 µM) | MIC50 (Candida zeyfanoide): 1.92 µg/mL (≈ 6.47 µM) | MIC90 (Candida zeyfanoide): 3.56 µg/mL (≈ 12 µM) | MIC50 (Candida parasilosis): 3.56 µg/mL (≈ 12 µM) | MIC90 (Candida parasilosis): 6.93 µg/mL (≈ 23.3 µM) | MIC50 (Escherichia coli): 7.53 µg/mL (≈ 25.4 µM) | MIC90 (Escherichia coli): 16 µg/mL (≈ 53.8 µM) | MIC50 (Salmonella choleraesuis): 5.57 µg/mL (≈ 18.8 µM) | MIC90 (Salmonella choleraesuis): 10.5 µg/mL (≈ 35.4 µM) | MIC50 (Candida krusei): 1.92 µg/mL (≈ 6.47 µM) | MIC90 (Candida krusei): 2.84 µg/mL (≈ 9.57 µM) | MIC50 (Pasteurella haemolytica): 3.72 µg/mL (≈ 12.5 µM) | MIC90 (Pasteurella haemolytica): 5.63 µg/mL (≈ 19 µM) | MIC50 (Serratia marcescens): 5.03 µg/mL (≈ 16.9 µM) | MIC90 (Serratia marcescens): 10.9 µg/mL (≈ 36.9 µM) | MIC (Fusarium sp.): 50 µg/mL (≈ 168 µM) | MIC50 (Staphylococcus albus): 10.2 µg/mL (≈ 34.5 µM) | MIC90 (Staphylococcus albus): 19.8 µg/mL (≈ 66.8 µM) | MIC50 (Candida guilliermondi): 1.92 µg/mL (≈ 6.47 µM) | MIC90 (Candida guilliermondi): 2.84 µg/mL (≈ 9.57 µM) | MIC50 (Microsporum canis): 7.91 µg/mL (≈ 26.6 µM) | MIC90 (Microsporum canis): 40.6 µg/mL (≈ 137 µM) | MIC50 (Sarcina lutea): 1.56 µg/mL (≈ 5.25 µM) | MIC90 (Sarcina lutea): 4.43 µg/mL (≈ 14.9 µM) | MIC50 (Leptospira canicola): 9.36 µg/mL (≈ 31.5 µM) | MIC90 (Leptospira canicola): 15.4 µg/mL (≈ 51.8 µM) | MIC90 (Salmonella typhimurium; TYPHIMURIUM, read-out: MIC90 values): 17.7 µg/mL (≈ 59.5 µM) | MIC50 (Salmonella typhimurium; Salmonella typhimurium): 7.43 µg/mL (≈ 25 µM) | MIC50 (Proteus rettgeri): 2.78 µg/mL (≈ 9.36 µM) | MIC90 (Proteus rettgeri): 9.92 µg/mL (≈ 33.4 µM) | MIC50 (Candida albicans): 3.11 µg/mL (≈ 10.5 µM) | MIC90 (Candida albicans): 7.95 µg/mL (≈ 26.8 µM) | MIC50 (Salmonella enteritidis): 6.86 µg/mL (≈ 23.1 µM) | MIC90 (Salmonella enteritidis): 11.5 µg/mL (≈ 38.7 µM) | MIC50 (Proteus vulgaris): 5.95 µg/mL (≈ 20 µM) | MIC90 (Proteus vulgaris): 19.8 µg/mL (≈ 66.5 µM) | MIC50 (Leptospira pomona): 8.84 µg/mL (≈ 29.8 µM) | MIC90 (Leptospira pomona): 11.7 µg/mL (≈ 39.3 µM) | MIC50 (Proteus morganii): 3.13 µg/mL (≈ 10.5 µM) | MIC90 (Proteus morganii): 10.2 µg/mL (≈ 34.2 µM) | MIC90 [1]: 40.6 µg/mL (≈ 137 µM) | MIC50 ([1]; read-out: MIC50 values): 17.7 µg/mL (≈ 59.5 µM) | MIC50 (Corynebacterium pyogenes): 3.56 µg/mL (≈ 12 µM) | MIC90 (Corynebacterium pyogenes): 5.59 µg/mL (≈ 18.8 µM) | MIC50 [2]: 11 µg/mL (≈ 37 µM) | MIC90 [2]: 21.3 µg/mL (≈ 71.9 µM) | MIC50 (Streptococcus agalactiae): 1.99 µg/mL (≈ 6.7 µM) | MIC90 (Streptococcus agalactiae): 4.55 µg/mL (≈ 15.3 µM) | MIC50 (Epidermophyton floccasum): 12.5 µg/mL (≈ 42.1 µM) | MIC50 (Staphylococcus aureus): 5.91 µg/mL (≈ 19.9 µM) | MIC90 (Staphylococcus aureus): 12.9 µg/mL (≈ 43.6 µM) | MIC50 (Candida tropicalis): 2.78 µg/mL (≈ 9.36 µM) | MIC90 (Candida tropicalis): 5.29 µg/mL (≈ 17.8 µM) | MIC50 ([3]; read-out: MIC50 values): 5.87 µg/mL (≈ 19.8 µM) | MIC90 ([3]; read-out: MIC90 values): 17.7 µg/mL (≈ 59.5 µM) | MIC50 (Pasteurella multocida): 3.59 µg/mL (≈ 12.1 µM) | MIC90 (Pasteurella multocida): 9.47 µg/mL (≈ 31.9 µM) | MIC50 (Enterobacter spp.): 5.3 µg/mL (≈ 17.9 µM) | MIC90 (Enterobacter spp.): 17.2 µg/mL (≈ 57.8 µM) | MIC50 (Streptococcus pyogenes): 1.86 µg/mL (≈ 6.26 µM) | MIC90 (Streptococcus pyogenes): 4.42 µg/mL (≈ 14.9 µM) | MIC50 (Aspergillus sp.): 16.2 µg/mL (≈ 54.6 µM) | MIC90 (Aspergillus sp.): 48.3 µg/mL (≈ 163 µM) | MIC50 (Bacillus alvei): 2.21 µg/mL (≈ 7.44 µM) | MIC90 (Bacillus alvei): 5.08 µg/mL (≈ 17.1 µM) | MIC50 (Pseudomonas maltophila): 29.7 µg/mL (≈ 100 µM) | MIC90 (Pseudomonas maltophila): 45.1 µg/mL (≈ 152 µM) | MIC50 (Moracella bovis): 2.63 µg/mL (≈ 8.86 µM) | MIC90 (Moracella bovis): 5.08 µg/mL (≈ 17.1 µM) | MIC50 (Salmonella thyphi): 2.5 µg/mL (≈ 8.42 µM) | MIC90 (Salmonella thyphi): 10 µg/mL (≈ 33.7 µM) | MIC50 (Salmonella dublin): 4.38 µg/mL (≈ 14.8 µM) | MIC90 (Salmonella dublin): 5.73 µg/mL (≈ 19.3 µM) | MIC50 (Neisseria meningitidis): 1.84 µg/mL (≈ 6.2 µM) | MIC90 (Neisseria meningitidis): 3.47 µg/mL (≈ 11.7 µM) | MIC50 (Salmonella oxford): 4.42 µg/mL (≈ 14.9 µM) | MIC90 (Salmonella oxford): 5.83 µg/mL (≈ 19.6 µM)

— patent publication EP0678516B1, “Preparation of 2-bromo-5-(2-bromo-2-nitrovinyl)-furan and its use as microcide” (CENTRO DE BIOACTIVOS QUIMICOS DE LA UNIVERSIDAD CENTRAL DE …, priority 1994, dated 1995)
